Drawing on US7256187B2, “Rifamycin C-11 oxime derivatives effective against drug-resistant microbes” (Cumbre Pharmaceuticals Inc., priority 2004, dated 2007), this text covers MIC for 5 compounds.

Common to all, as to type: cell-based
The test system of assay [1] is Staphylococcus aureus ATCC29213. The assay is described as follows: MIC, microbroth dilution. The following applies: Staphylococcus aureus ATCC29213, rifS; read-out: Antimicrobial activity (MIC). (In broth dilution the organism is exposed to a series of concentrations in liquid medium.)
The subject of assay [2] is Staphylococcus aureus ATCC29213 rpoB^D417Y. The assay is described as follows: microbe, parasite or virus in culture. The following applies: Staphylococcus aureus ATCC29213 rpoB^D417Y, rifR; read-out: Antimicrobial activity (MIC). The protocol: (§1) Representative compounds were assayed for antimicrobial activity as follows: Minimum Inhibitory Concentrations (“MICs”) were determined by the microbroth dilution method as per NCCLS guidelines (National Committee for Clinical Laboratory Standards. 2000. Methods for dilution antimicrobial susceptibility tests for bacteria that grow aerobically, 5th ed. M7-A5. National Committee for Clinical Laboratory Standards, Wayne, Pa.), except that all growth incubations were conducted at 37° C. Bacterial cultures were tested in the following bacteriological media: S. aureus, S. epidermidis, and E. coli in Cation-Adjusted Mueller-Hinton Broth, S. pneumoniae in THY Broth supplemented with 1 mg/mL catalase under 5% CO2 atmosphere, S. pyogenes in THY Broth, E. faecalis in BHI Broth, H. influenzae in BHI Broth supplemented with 0.75 μL of 1 mg/mL NAD and 150 μL of 1 mg/ml hematin per 5 mL, and M. smegmatis in Middlebrook Broth plus ADC Enrichment.
(§2) S. aureus ATCC 29213 RpoB^H418Y is a rifampin-resistant strain with a mutation in the RpoB gene of RNA polymerase. […] S. aureus EN1252a gyrA^S84L grlA^S80F is a quinolone-resistant strain due to double gene mutations of DNA gyrase and topoisomerase IV.

Assay [3] relates to Staphylococcus aureus ATCC29213 rpoB^H418Y. The assay is described as follows: microbe, parasite or virus in culture. The following applies: Staphylococcus aureus ATCC29213 rpoB^H418Y, rifR; read-out: Antimicrobial activity (MIC). The protocol:
as §1, §2

Assay [4] has as its system Staphylococcus aureus EN1252a gyrA^S84L grlA^S80F. Kind of assay: microbe, parasite or virus in culture. The following applies: Staphylococcus aureus EN1252a gyrA^S84L grlA^S80F, cipR; read-out: Antimicrobial activity (MIC). Here is the method: as §1, §2
Assay [5] concerns Staphylococcus epidermidis ATCC12228. Kind of assay: MIC, microbroth dilution. The following applies: Staphylococcus epidermidis ATCC12228, rifS; read-out: Antimicrobial activity (MIC).
Assay [6] deals with Streptococcus pneumoniae ATCC6303. Kind of assay: MIC, microbroth dilution. The following applies: Streptococcus pneumoniae ATCC6303, rifS; read-out: Antimicrobial activity (MIC).
The subject of assay [7] is Streptococcus pyogenes ATCC19615. Kind of assay: MIC, microbroth dilution. The following applies: Streptococcus pyogenes ATCC19615, rifS; read-out: Antimicrobial activity (MIC).
In assay [8] the test system is Enterococcus faecalis ATCC29212. The assay is described as follows: MIC, microbroth dilution. The following applies: Enterococcus faecalis ATCC29212, rifS; read-out: Antimicrobial activity (MIC).
In assay [9] the test system is Haemophilus influenzae ATCC10211. Kind of assay: MIC, microbroth dilution. The following applies: Haemophilus influenzae ATCC10211, rifS; read-out: Antimicrobial activity (MIC).
The subject of assay [10] is Escherichia coli ATCC25922. Kind of assay: MIC, microbroth dilution. The following applies: Escherichia coli ATCC25922, rifS; read-out: Antimicrobial activity (MIC).
In assay [11] the test system is Mycobacterium smegmatis ATCC700084. Kind of assay: MIC, microbroth dilution. The following applies: Mycolicibacterium smegmatis; Mycobacterium smegmatis ATCC700084, rifS; read-out: Antimicrobial activity (MIC).

In brackets after ≈: the same amount, converted by molar mass.

Consider `COc1c(N2CCN(/N=C/c3c4c(O)c5c(O)c(C)c6c(c5c3O)/C(=N/O)[C@@](C)(O/C=C/[C@H](OC)[C@@H](C)[C@@H](OC(C)=O)[C@H](C)[C@H](O)[C@H](C)[C@@H](O)[C@@H](C)/C=C/C=C(/C)C(=O)N4)O6)C(C)C2)c(F)cc2c(=O)c(C(=O)O)cn(C3CC3)c12` (mixture of isomers) [Example 40, (R/S)-3-[4-(3-Carboxy-1-cyclopropyl-6-fluoro-8-methoxy-4-oxo-1,4-dihydroquinolin-7-yl)-2-methyl-piperazin-1-yl-aminomethylenyl]-11-deoxy-11-hydroxyiminorifamycin SV], for which the MIC is 0.004 to 0.5 µg/mL (≈ 0.00359 to 0.449 µM) in assay [1]; 0.25 to 32 µg/mL (≈ 0.225 to 28.7 µM) in assay [2]; 0.125 to 16 µg/mL (≈ 0.112 to 14.4 µM) in [3]; 0.004 to 0.5 µg/mL (≈ 0.00359 to 0.449 µM) in assay [4]; 0.0005 to 0.063 µg/mL (≈ 0.000449 to 0.0566 µM) in assay [5]; 0.0002 to 0.125 µg/mL (≈ 0.00018 to 0.112 µM) in [6]. The MIC lay in the range of 0.0005 to 0.063 µg/mL (≈ 0.000449 to 0.0566 µM) in assay [7]; 2 to 32 µg/mL (≈ 1.8 to 28.7 µM) in [8]; 0.03 to 2 µg/mL (≈ 0.0269 to 1.8 µM) in assay [9]; 0.125 to 8 µg/mL (≈ 0.112 to 7.19 µM) in assay [10]; 0.5 to 64 µg/mL (≈ 0.449 to 57.5 µM) in [11].
Turning to `CO[C@H]1/C=C/O[C@@]2(C)Oc3c(C)c(O)c4c(c3/C2=N/O)/C(=N/O)C=C(NC(=O)/C(C)=C\C=C\[C@H](C)[C@H](O)[C@@H](C)[C@@H](O)[C@@H](C)[C@H](OC(C)=O)[C@@H]1C)C4=O` [Example 4, 4, 11-Dideoxy-4,11-dihydroxyiminorifamycin S], the MIC is 0.004 to 0.5 µg/mL (≈ 0.00551 to 0.689 µM) in [1]; 0.25 to 32 µg/mL (≈ 0.344 to 44.1 µM) in assay [2]; 0.125 to 16 µg/mL (≈ 0.172 to 22 µM) in assay [3]; 0.004 to 0.5 µg/mL (≈ 0.00551 to 0.689 µM) in assay [4]; 0.0005 to 0.063 µg/mL (≈ 0.000689 to 0.0868 µM) in [5]; 0.0002 to 0.125 µg/mL (≈ 0.000276 to 0.172 µM) in assay [6]. Also, the MIC in [7] was in the range of 0.0005 to 0.063 µg/mL (≈ 0.000689 to 0.0868 µM); in [8], 2 to 32 µg/mL (≈ 2.76 to 44.1 µM); in assay [9], 0.03 to 2 µg/mL (≈ 0.0413 to 2.76 µM); in [10], 0.125 to 8 µg/mL (≈ 0.172 to 11 µM); in assay [11], 0.5 to 64 µg/mL (≈ 0.689 to 88.2 µM).
Turning to `CO/N=C1/c2c3c(C)c(O)c4c2/C(=N/OC)C=C(NC(=O)/C(C)=C\C=C\[C@H](C)[C@H](O)[C@@H](C)[C@@H](O)[C@@H](C)[C@H](OC(C)=O)[C@H](C)[C@@H](OC)/C=C/O[C@@]1(C)O3)C4=O` [Example 5, 4, 11-Dideoxy-4, 11-dimethoxyiminorifamycin S], the MIC in assay [1] was in the range of 0.004 to 0.5 µg/mL (≈ 0.00531 to 0.663 µM); in assay [2], 0.25 to 32 µg/mL (≈ 0.332 to 42.4 µM); in assay [3], 0.125 to 16 µg/mL (≈ 0.166 to 21.2 µM); in [4], 0.004 to 0.5 µg/mL (≈ 0.00531 to 0.663 µM); in assay [5] it was 0.0005 to 0.063 µg/mL (≈ 0.000663 to 0.0836 µM); in assay [6] it was 0.0002 to 0.125 µg/mL (≈ 0.000265 to 0.166 µM). For the same compound, the MIC in assay [7] lay in the range of 0.0005 to 0.063 µg/mL (≈ 0.000663 to 0.0836 µM); in assay [8], 2 to 32 µg/mL (≈ 2.65 to 42.4 µM); in assay [9] it was 0.03 to 2 µg/mL (≈ 0.0398 to 2.65 µM); in assay [10], 0.125 to 8 µg/mL (≈ 0.166 to 10.6 µM); in [11], 0.5 to 64 µg/mL (≈ 0.663 to 84.9 µM).
Consider `CO[C@H]1/C=C/O[C@@]2(C)Oc3c(C)c(O)c4c(c3/C2=N/O)C(=O)C=C(NC(=O)/C(C)=C\C=C\[C@H](C)[C@H](O)[C@@H](C)[C@@H](O)[C@@H](C)[C@H](OC(C)=O)[C@@H]1C)C4=O` [Example 7, 11-Deoxy-11-hydroxyiminorifamycin S], for which the MIC in assay [1] was in the range of 0.004 to 0.5 µg/mL (≈ 0.00563 to 0.703 µM); in assay [2] it was 0.25 to 32 µg/mL (≈ 0.352 to 45 µM); in assay [3], 0.125 to 16 µg/mL (≈ 0.176 to 22.5 µM); in [4], 0.004 to 0.5 µg/mL (≈ 0.00563 to 0.703 µM); in assay [5] it was 0.0005 to 0.063 µg/mL (≈ 0.000703 to 0.0886 µM); in assay [6] it was 0.0002 to 0.125 µg/mL (≈ 0.000281 to 0.176 µM). In addition, the MIC fell in the range of 0.0005 to 0.063 µg/mL (≈ 0.000703 to 0.0886 µM) in assay [7]; 2 to 32 µg/mL (≈ 2.81 to 45 µM) in [8]; 0.03 to 2 µg/mL (≈ 0.0422 to 2.81 µM) in [9]; 0.125 to 8 µg/mL (≈ 0.176 to 11.3 µM) in assay [10]; 0.5 to 64 µg/mL (≈ 0.703 to 90 µM) in assay [11].
Take `CO[C@H]1/C=C/O[C@@]2(C)Oc3c(C)c(O)c4c(c3/C2=N/OC(=O)c2ccncc2)C(=O)C=C(NC(=O)/C(C)=C\C=C\[C@H](C)[C@H](O)[C@@H](C)[C@@H](O)[C@@H](C)[C@H](OC(C)=O)[C@@H]1C)C4=O` [Example 8, 11-Deoxy-11-(4-pyridylcarboxy)iminorifamycin S]: the MIC fell in the range of 0.004 to 0.5 µg/mL (≈ 0.0049 to 0.613 µM) in assay [1]; 0.25 to 32 µg/mL (≈ 0.306 to 39.2 µM) in [2]; 0.125 to 16 µg/mL (≈ 0.153 to 19.6 µM) in assay [3]; 0.004 to 0.5 µg/mL (≈ 0.0049 to 0.613 µM) in assay [4]; 0.0005 to 0.063 µg/mL (≈ 0.000613 to 0.0772 µM) in [5]; 0.0002 to 0.125 µg/mL (≈ 0.000245 to 0.153 µM) in assay [6]. In addition, the MIC was in the range of 0.0005 to 0.063 µg/mL (≈ 0.000613 to 0.0772 µM) in [7]; 2 to 32 µg/mL (≈ 2.45 to 39.2 µM) in assay [8]; 0.03 to 2 µg/mL (≈ 0.0368 to 2.45 µM) in assay [9]; 0.125 to 8 µg/mL (≈ 0.153 to 9.81 µM) in assay [10]; 0.5 to 64 µg/mL (≈ 0.613 to 78.4 µM) in [11].
